Where two headings read alike, the source gives them in different places.
Key:
hA3AR = target: T1, hA3AR (Homo sapiens, UniProt P0DMS8); assay: Radioligand binding competition, [3H]NECA, membranes from HeLa-A3 cells; conditions: 1 μM, [3H]NECA, human HeLa cells, n = 2
T1 construct: expressed in transfected cells; host or cells: HeLa (HeLa-A3) cell membranes
T1 sequence (P0DMS8 1-318): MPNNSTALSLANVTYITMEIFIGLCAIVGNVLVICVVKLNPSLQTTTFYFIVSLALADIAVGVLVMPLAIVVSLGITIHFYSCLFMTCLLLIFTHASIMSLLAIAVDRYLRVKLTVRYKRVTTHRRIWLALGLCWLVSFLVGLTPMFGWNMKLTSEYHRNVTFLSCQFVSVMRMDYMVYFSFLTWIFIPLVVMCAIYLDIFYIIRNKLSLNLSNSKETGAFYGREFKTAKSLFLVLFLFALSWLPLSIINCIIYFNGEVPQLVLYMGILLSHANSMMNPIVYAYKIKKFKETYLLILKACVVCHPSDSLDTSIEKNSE
Procedure, shortened: (§1)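 Racemates, plus selected enantiomers after chiral resolution, were tested at 25 °C, with a 60 min incubation for one subtype and 30 min for others. Non-specific binding was defined with 10 μM or 100 μM R-PIA. Bound radioactivity was counted after washing and filtration.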

hA1AR = target: T2, hA1AR (Homo sapiens, UniProt P30542); assay: Radioligand binding competition, [3H]DPCPX, membranes from CHO-A1 cells; conditions: 1 μM, [3H]DPCPX, human CHO cells, n = 2
T2 sequence (P30542 1-326): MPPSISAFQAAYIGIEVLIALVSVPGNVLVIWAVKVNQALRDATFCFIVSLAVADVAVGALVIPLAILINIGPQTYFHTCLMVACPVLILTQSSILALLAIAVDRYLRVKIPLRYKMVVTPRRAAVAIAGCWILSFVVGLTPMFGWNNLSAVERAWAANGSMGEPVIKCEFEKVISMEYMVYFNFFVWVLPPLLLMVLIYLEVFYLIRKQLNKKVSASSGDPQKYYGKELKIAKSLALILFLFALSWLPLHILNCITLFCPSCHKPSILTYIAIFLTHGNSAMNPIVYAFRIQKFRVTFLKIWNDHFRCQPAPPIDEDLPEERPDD
Procedure, shortened: as §1

A2BAR [1] = target: T3, A2BAR (Homo sapiens, UniProt P29275); assay: cAMP accumulation assay in HEK-293 cells permanently expressing A2BAR-SNAP; type: cell-based; conditions: read-out: KB (hA2B)
T3 construct: expressed in transfected cells; host or cells: HEK-293 T cells permanently expressing pRK5-A2BAR^SNAP
T3 sequence (P29275 1-332): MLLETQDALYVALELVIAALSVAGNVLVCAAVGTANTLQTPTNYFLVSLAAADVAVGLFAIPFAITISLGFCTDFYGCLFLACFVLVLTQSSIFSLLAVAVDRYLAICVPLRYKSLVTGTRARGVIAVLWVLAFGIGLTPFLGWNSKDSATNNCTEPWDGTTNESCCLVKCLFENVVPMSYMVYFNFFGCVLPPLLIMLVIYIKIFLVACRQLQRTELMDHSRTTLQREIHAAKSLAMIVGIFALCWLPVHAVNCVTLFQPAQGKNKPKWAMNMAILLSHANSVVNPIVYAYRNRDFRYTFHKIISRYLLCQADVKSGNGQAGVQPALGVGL
Protocol: To assess their ability to block A2BAR agonist intrinsic activity, the effect on A2BAR-mediated cAMP accumulation and cellular impedance was evaluated. To this end, we used HEK-293 cells permanently expressing the A2BAR^SNAP construct, which can be visualized upon staining the cells with a SNAP-fluorescent substrate.
Scale bar: […]. […] Data are expressed as mean ± SEM (n = 4).
cAMP accumulation was measured using the LANCE Ultra cAMP kit (PerkinElmer, Waltham, Massachusetts, USA) as previously described.[55] […] The 384-well plate was incubated 1 h at 22 °C in the dark and was then read on a CLARIOstar Microplate Reader (BMG Labtech, Durham, North Carolina, USA). […] Data were fitted by non-linear regression using GraphPad Prism 9 (San Diego, California, USA).

hA2AAR = target: T4, hA2AAR (Homo sapiens, UniProt P29274); assay: Radioligand binding competition, [3H]ZM241385, membranes from HeLa-A2A cells; conditions: 1 μM, [3H]ZM241385, human HeLa cells, n = 2
T4 construct: expressed in transfected cells; host or cells: HeLa (HeLa-A2A) cell membranes
T4 sequence (P29274 whole entry): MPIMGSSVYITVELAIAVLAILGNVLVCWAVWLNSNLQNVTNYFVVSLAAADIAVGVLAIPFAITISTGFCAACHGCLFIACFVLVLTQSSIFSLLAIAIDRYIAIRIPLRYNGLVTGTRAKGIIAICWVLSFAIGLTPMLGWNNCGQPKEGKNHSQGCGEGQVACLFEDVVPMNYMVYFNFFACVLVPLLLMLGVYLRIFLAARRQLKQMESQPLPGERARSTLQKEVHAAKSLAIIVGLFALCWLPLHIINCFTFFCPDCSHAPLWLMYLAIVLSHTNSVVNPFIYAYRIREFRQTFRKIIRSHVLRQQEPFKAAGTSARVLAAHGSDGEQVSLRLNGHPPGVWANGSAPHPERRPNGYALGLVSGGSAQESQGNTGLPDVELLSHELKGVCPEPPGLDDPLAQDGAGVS
Procedure, shortened: as §1

A2BAR [2] = target: T3, A2BAR; assay: Cellular impedance label-free assay (xCELLigence) in A2BAR-SNAP cells; type: cell-based; conditions: compound 1 μM, NECA 1 μM, 45 min, n = 4
Text: To further evaluate the ability of 16b, 16j, 16r, and 16s to preclude A2BAR function in living cells, we took advantage of the cellular impedance label-free method, a widely accepted morphological and functional biosensor of cell status.[39] Accordingly, whole-cell NECA-mediated impedance responses of A2BAR^SNAP cells were monitored in real time in the absence or presence of 16b, 16j, 16r, and 16s.
Figure 4 Blockade of A2BAR-mediated whole-cell label-free responses. (A) Representative example of the impedance signal obtained over the time upon incubation with A2BAR ligands. […] (B) The area under the curve (AUC) derived from the normalized cell index (NCI) shown in (A) was calculated for each condition. Data are expressed as mean ± SEM (n = 4). ***P < 0.001 and **P < 0.01, one-way ANOVA with a Dunnett’s multiple-comparison test when compared to vehicle (Veh).
The xCELLigence RTCA system (Roche) was employed to assess the impact of blocking A2BAR-mediated effects in cellular impedance upon receptor activation, as previously described.[57]−[60] To this end, A2BAR^SNAP cells were growth in 16-well E-plates (Roche), using DMEM supplemented with 1 mM sodium pyruvate, 2 mM L-glutamine, 100 U/mL streptomycin, […] penicillin, and 1.5% (v/v) fetal bovine serum in the presence of 0.5 U/mL of ADA. Of note, wells were previously coated with 50 μL fibronectin (10 μg/mL; Sigma-Aldrich) and the background index for each well was determined with supplemented DMEM (90 μL) in the absence of cells. Subsequently, A2BAR^SNAP cells (90 μL) were plated at a cell density of 10,000 cells/well and grown for 18 h in the RTCA SP device station (Roche) at 37 °C in an atmosphere of 5% CO2. Then, before ligand addition, cell index values were normalized to the same time point using the RTCA software, providing the normalized cell index (NCI). After ligand stimulation, NCI was recorded every 15 s for a total time of at least 45 min. The area under the curve (AUC) for every condition was calculated using GraphPad Prism 9.

hA2BAR = target: T5, hA2BAR (Homo sapiens, UniProt P29275); assay: Radioligand binding competition, [3H]DPCPX, membranes from HEK-293-A2B cells; conditions: read-out: Ki hA2B
T5 construct: host or cells: HEK-293 (HEK-293-A2B) cell membranes
T5 sequence (P29275 1-332): T3 sequence (P29275 1-332)
Procedure, shortened: as §1

% at 1 μM hA3 (percentage displacement of specific binding) (hA3AR): 25% | % at 1 μM hA1 (percentage displacement of specific binding) (hA1AR): 1% | Kb (A2BAR [1]): 1.5 ± 0.5 nM | % at 1 μM hA2A (percentage displacement of specific binding) (hA2AAR): 37% | Blockade of NECA-induced changes in cellular impedance (AUC of normalized cell index) (A2BAR [2]): significantly blocked | Ki (hA2BAR; displacement of specific [3H]DPCPX binding in human HEK-293 cells, n = 3): 3.32 ± 0.4 nM | Ki (hA2BAR): < 10 nM
SMILES: CCOC(=O)C1=C(C)Nc2nc3cc(Br)ccc3n2C1c1ccoc1 (stereo not shown) [16s]
